According to patent publication US20230002367A1, “BIFUNCTIONAL COMPOUNDS” (Hoffmann-La Roche Inc., priority 2019, published 2023):

Molecular target: T1, SMARCA2 (Homo sapiens, UniProt P51531)
T1 construct: endogenous in cells
Experiment: SMARCA2 HiBiT degradation assay (cellular)
Type: cell-based
Details: for Emax: A549, Emax = amount of residual protein remaining in the cell following compound treatment; for DC50: SMARCA2 HiBiT cells, luminescence readout, 11-point titration from 10 μM, 6 hours or 16 hours, read-out: HiBit A549 SMARCA2 IP

T1 sequence (P51531 whole entry): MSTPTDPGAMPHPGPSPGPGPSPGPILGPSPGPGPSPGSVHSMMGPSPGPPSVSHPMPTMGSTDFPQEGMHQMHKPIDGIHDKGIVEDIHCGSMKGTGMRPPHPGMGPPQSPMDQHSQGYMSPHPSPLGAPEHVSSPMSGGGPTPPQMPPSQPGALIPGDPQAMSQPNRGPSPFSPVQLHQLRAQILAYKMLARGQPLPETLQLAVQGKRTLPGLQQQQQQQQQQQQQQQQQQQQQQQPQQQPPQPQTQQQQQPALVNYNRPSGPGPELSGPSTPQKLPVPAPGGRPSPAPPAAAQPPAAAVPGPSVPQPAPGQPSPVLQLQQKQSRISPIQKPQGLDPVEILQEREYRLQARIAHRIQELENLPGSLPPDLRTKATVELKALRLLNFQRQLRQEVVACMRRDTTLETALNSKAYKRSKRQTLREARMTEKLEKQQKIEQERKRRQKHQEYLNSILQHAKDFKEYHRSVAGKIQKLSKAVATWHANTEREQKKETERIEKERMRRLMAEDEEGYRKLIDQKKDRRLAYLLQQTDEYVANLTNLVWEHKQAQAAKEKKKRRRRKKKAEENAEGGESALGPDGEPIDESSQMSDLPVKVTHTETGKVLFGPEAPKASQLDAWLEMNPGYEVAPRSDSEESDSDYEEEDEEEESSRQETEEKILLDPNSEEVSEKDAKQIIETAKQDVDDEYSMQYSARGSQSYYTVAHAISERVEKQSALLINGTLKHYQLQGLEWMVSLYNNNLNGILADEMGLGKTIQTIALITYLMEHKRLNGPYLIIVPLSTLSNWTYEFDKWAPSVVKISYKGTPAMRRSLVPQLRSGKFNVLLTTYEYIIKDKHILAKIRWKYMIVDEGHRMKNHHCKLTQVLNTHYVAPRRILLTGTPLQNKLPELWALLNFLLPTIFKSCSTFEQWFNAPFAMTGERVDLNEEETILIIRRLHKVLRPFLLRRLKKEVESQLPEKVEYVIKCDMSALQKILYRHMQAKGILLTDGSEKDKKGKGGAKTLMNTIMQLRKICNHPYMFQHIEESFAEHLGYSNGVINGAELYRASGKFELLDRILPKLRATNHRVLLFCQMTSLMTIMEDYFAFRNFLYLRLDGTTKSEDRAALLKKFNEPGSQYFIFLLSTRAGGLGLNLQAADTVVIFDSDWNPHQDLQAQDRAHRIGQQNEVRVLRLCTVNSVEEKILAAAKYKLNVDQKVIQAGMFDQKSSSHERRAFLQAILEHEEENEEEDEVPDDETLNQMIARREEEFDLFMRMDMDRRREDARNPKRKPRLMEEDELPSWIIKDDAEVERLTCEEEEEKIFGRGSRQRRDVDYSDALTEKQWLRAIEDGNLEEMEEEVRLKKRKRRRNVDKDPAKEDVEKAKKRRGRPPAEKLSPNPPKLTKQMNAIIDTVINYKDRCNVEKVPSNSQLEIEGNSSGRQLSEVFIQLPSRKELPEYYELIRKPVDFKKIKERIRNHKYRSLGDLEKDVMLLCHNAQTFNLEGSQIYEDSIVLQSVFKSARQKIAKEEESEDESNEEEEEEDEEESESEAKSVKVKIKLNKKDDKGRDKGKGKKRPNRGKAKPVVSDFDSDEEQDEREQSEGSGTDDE

Compound	Emax	DC50
Cc1ncsc1-c1ccc([C@H](C)NC(=O)[C@@H]2C[C@@H](O)CN2C(=O)[C@@H](NC(=O)CCOCCOCCC(=O)N(C)CC(COc2cc(-c3ccccc3O)nnc2N)c2ccccc2)C(C)(C)C)cc1 (mixture of isomers) [Example 24, rac-(2S,4R)-4-hydroxy-1-[rac-(2S)-2-[3-[2-[3-[[3-[3-amino-6-(2-hydroxyphenyl)pyridazin-4-yl]oxy-2-phenyl-propyl]-methyl-amino]-3-oxo-propoxy]ethoxy]propanoylamino]-3,3-dimethyl-butanoyl]-N-[rac-(1S)-1-[4-(4-methylthiazol-5-yl)phenyl]ethyl]pyrrolidine-2-carboxamide]	42%	2850 nM
Cc1ncsc1-c1ccc([C@H](C)NC(=O)[C@@H]2C[C@@H](O)CN2C(=O)[C@@H](NC(=O)CCCCCCCCC(=O)N2CCN(Cc3cccc(C(C)Oc4cc(-c5ccccc5O)nnc4N)c3)CC2)C(C)(C)C)cc1 (mixture of isomers) [Example 82, rac-(2S,4R)-4-hydroxy-1-[rac-(2S)-2-[[10-[4-[[3-[l-[3-amino-6-(2-hydroxyphenyl)pyridazin-4-yl]oxyethyl]phenyl]methyl]piperazin-1-yl]-10-oxo-decanoyl]amino]-3,3-dimethyl-butanoyl]-N-[rac-(1S)-1-[4-(4-methylthiazol-5-yl)phenyl]ethyl]pyrrolidine-2-carboxamide]	62%	586 nM
Cc1ncsc1-c1ccc(CNC(=O)[C@@H]2C[C@@H](O)CN2C(=O)[C@@H](NC(=O)CCCCCCCCC(=O)N2CCOC3(CCN(c4cc(-c5ccccc5O)nnc4N)CC3)C2)C(C)(C)C)cc1 [Example 12, (2S,4R)-1-[(2S)-2-[[10-[9-[3-amino-6-(2-hydroxyphenyl)pyridazin-4-yl]-1-oxa-4,9-diazaspiro[5.5]undecan-4-yl]-10-oxo-decanoyl]amino]-3,3-dimethyl-butanoyl]-4-hydroxy-N-[[4-(4-methylthiazol-5-yl)phenyl]methyl]pyrrolidine-2-carboxamide]	43%	2460 nM
Cc1ncsc1-c1ccc([C@H](C)NC(=O)[C@@H]2C[C@@H](O)CN2C(=O)[C@@H](NC(=O)CCCCCC(=O)N2CCN(CCOc3cccc(CCOc4cc(-c5ccccc5O)nnc4N)c3)CC2)C(C)(C)C)cc1 [Example 57, (2S,4R)-1-[(2S)-2-[[7-[4-[2-[3-[2-[3-amino-6-(2-hydroxyphenyl)pyridazin-4-yl]oxyethyl]phenoxy]ethyl]piperazin-1-yl]-7-oxo-heptanoyl]amino]-3,3-dimethyl-butanoyl]-4-hydroxy-N-[(1S)-1-[4-(4-methylthiazol-5-yl)phenyl]ethyl]pyrrolidine-2-carboxamide]	35%	736 nM
Cc1ncsc1-c1ccc([C@@H](C)NC(=O)[C@H]2C[C@H](O)CN2C(=O)[C@H](NC(=O)CCOCCC(=O)N2CCN(c3ccc(N4CCCC(Oc5cc(-c6ccccc6O)nnc5N)C4)cc3)CC2)C(C)(C)C)cc1 (stereo in doubt) [Example 31, (2R,4S)-1-((2R)-2-(3-(3-(4-(4-(3-((3-amino-6-(2-hydroxyphenyl)pyridazin-4-yl)oxy)piperidin-1-yl)phenyl)piperazin-1-yl)-3-oxopropoxy)propanamido)-3,3-dimethylbutanoyl)-4-hydroxy-N-((R)-1-(4-(4-methylthiazol-5-yl)phenyl)ethyl)pyrrolidine-2-carboxamide]	30%	1920 nM
Cc1ncsc1-c1ccc([C@H](C)NC(=O)[C@@H]2C[C@@H](O)CN2C(=O)[C@@H](NC(=O)CCCCCC(=O)N2CCN(CCOc3ccc(N4CCCC(Oc5cc(-c6ccccc6O)nnc5N)C4)cc3)CC2)C(C)(C)C)cc1 (mixture of isomers) [Example 77, rac-(2S,4R)-4-hydroxy-1-[rac-(2S)-2-[[7-[4-[2-[4-[3-[3-amino-6-(2-hydroxyphenyl)pyridazin-4-yl]oxy-1-piperidyl]phenoxy]ethyl]piperazin-1-yl]-7-oxo-heptanoyl]amino]-3,3-dimethyl-butanoyl]-N-[rac-(1S)-1-[4-(4-methylthiazol-5-yl)phenyl]ethyl]pyrrolidine-2-carboxamide]	24%	244 nM
